This note sets out measurements from US20190290574A1, “TOPICAL SKIN CARE COMPOSITIONS COMPRISING MYRSINE AFRICANA EXTRACTS” (University of Pretoria, priority 2015, published 2019).

Like-named read-outs stand apart in the source and are kept apart here.

Series [1] deals with T1, porcine pancreatic elastase (Sus scrofa, UniProt P00772).
T1 construct: purchased Sigma E0258; host or cells: porcine pancreas (tissue-derived product)
Briefly: Elastase inhibition assay (release of p-nitroaniline from N-Succinyl-Ala-Ala-Ala-p-nitroanilide). It is filed as biochemical. To be noted: for inhibition at 5 µg/mL: 5 μg/mL; for inhibition at 10 µg/mL: 10 μg/mL; for inhibition at 25 µg/mL: 25 μg/mL; for inhibition at 50 µg/mL: 50 μg/mL; for IC50: read-out: IC50 (μg/mL) (95% Confidence Interval) (converted).
Procedure: The pancreatic elastase inhibitory activity was determined in vitro by the spectrophotometric determination of the release of p-nitroaniline from a synthetic substrate N-Succinyl-Ala-Ala-Ala-p-nitroanilide.
A sample stock solution of 500 μg/mL and 1120 μg/mL was prepared from M. africana leaf extract and compound respectively. Briefly, 2.5 mg of extract and 2.24 mg of the compound was weighed and dissolved in 100 μL of methanol. The volume was then made up to 5 mL for the extract and to 2 mL for the compound with 100mM Tris-HCl buffer, pH 8.0. Subsequent dilutions for the assay were made as required.
An elastase inhibition assay was carried out largely as per the method of Bieth et al. (1974) with modifications. In brief, a pre-incubation mixture contained 100 mM of either Tris-HCl buffer (pH 8.0), vehicle buffer, positive control, or test sample of various concentrations together with 4.942 mU of elastase enzyme. The reagents were mixed and the mixture was pre-incubated at 37° C. for 15 min. Following pre-incubation, substrate (N-Succinyl-Ala-Ala-Ala-p-nitroanilide) was added to a final concentration of 0.338 mM and the solution was mixed and incubated at 37° C. for 30 min. The absorbance was measured at 405 nm in a micro-plate reader (Versamax, Molecular devices, USA). A control reaction was carried out without the test sample.
The % inhibition of the enzyme was calculated as follows:
IC50 was calculated using log-probit analysis.

The test system of a further series is human skin. Briefly: Irritancy patch test. On the procedure:
A sample of the ethanol extract was applied on the inner forearm of twenty (20) volunteers aged between 19-65 years using patch discs for 24 hours to determine irritancy. Visual assessments of the areas were made after 24, 48, 72 and 96 hours. Any reaction was graded as a score of 0, 0.5, 1, 2, 3, and 4, where 0 represented a no response and 4 a fiery redness, papules, oedema or bullae. The forearm of each volunteer included a positive control of sodium lauryl sulphate solution (1 g/100 mL) and a negative control of demineralised water.

[2] abbreviates: Compound MA-NR-01 run, read-out: % Inhibition (Mean ± SEM).
[3] abbreviates: MA ethanolic extract run, read-out: % Inhibition (Mean ± SEM).

T1 sequence (P00772 27-266): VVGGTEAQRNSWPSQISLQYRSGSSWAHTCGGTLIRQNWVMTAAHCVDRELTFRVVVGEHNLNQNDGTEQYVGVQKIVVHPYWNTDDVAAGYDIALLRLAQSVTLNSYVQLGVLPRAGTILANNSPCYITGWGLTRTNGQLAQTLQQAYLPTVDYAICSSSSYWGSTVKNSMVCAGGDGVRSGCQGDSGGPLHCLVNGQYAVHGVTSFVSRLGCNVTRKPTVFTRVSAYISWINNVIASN

Broadly, the inhibition is the change of the read-out against control, counted positive when it falls. Turning to `C[C@H]1[C@H](C)CC[C@]2(C(=O)O)CC[C@]3(C)C(=CC[C@@H]4[C@@]5(C)CC[C@H](O)C(C)(C)[C@@H]5CC[C@]43C)[C@H]12` [Ursolic Acid, ursolic acid], in series [1] (2.5 μg/mL, Compound MA-NR-01 run, read-out: % Inhibition (Mean ± SEM)), the inhibition at 2.5 µg/mL was found to be 10.6 ± 0.32%. Further, in series [1] (setting [2]), the inhibition at 5 µg/mL turned out to be 21.1 ± 0.53%, the inhibition at 10 µg/mL is 40.1 ± 1.22%, the inhibition at 25 µg/mL is 58.85 ± 0.17% and the inhibition at 50 µg/mL worked out at 62.1 ± 1.18%. For the same molecule, in series [1] (setting [3]), the inhibition at 5 µg/mL was 13.2 ± 2.25%, the inhibition at 10 µg/mL was found to be 24.1 ± 4.5%, the inhibition at 25 µg/mL was determined as 41.4 ± 0.92% and the inhibition at 50 µg/mL worked out at 53.2 ± 0.56%. Moreover, the IC50 in series [1] (run of Compound MA-NR-01 (right half of Table 1)) is 45.5 µM. In addition, the IC50 in series [1] (run of MA ethanolic extract (left half of Table 1)) was 88.9 µM.
In the case of `CCCCCCCCCCCCOS(=O)(=O)[O-].[Na+]` [Positive Control Right, sodium lauryl sulphate], the “Number of subjects with reactions after 48 hours” value with human skin (20 volunteers, 48 hours) was found to be 12. Further, the Irritancy entry in the series on human skin (patch test on human subjects) was “Irritant”. This molecule also had an Average value with human skin (patch test, 20 volunteers, results after 96 hours) of 0.54. In the series on human skin (patch test, score scale 0-4, results after 96 hours), this molecule displayed an Average score of 1.03. The “Irritancy potential % (TP-NC)/(PC-NC)” value in the series on human skin (relative to positive control sodium lauryl sulphate and negative control water) came out at 100%.
In the case of Myrsinoside B [MA-NR-01], the “% Inhibition (Mean ± SEM)” value in series [1] (7.8125 μg/mL, Compound MA-NR-01 run) is 11.79 ± 4.35%; in series [1] (15.625 μg/mL, Compound MA-NR-01 run), 4.79 ± 1.66%; in series [1] (31.25 μg/mL, Compound MA-NR-01 run), 6.76 ± 4.57%; in series [1] (62.5 μg/mL, Compound MA-NR-01 run), 5.73 ± 1.04%; in series [1] (125 μg/mL, Compound MA-NR-01 run) it was 13.00±1.04%; in series [1] (250 μg/mL, Compound MA-NR-01 run), 25.75 ± 1.46%. For the same molecule, in series [1] (500 μg/mL, Compound MA-NR-01 run), the “% Inhibition (Mean ± SEM)” value was found to be 31.02 ± 1.22%.
